Reference: US10722518B2, “Oxazine derivative for use in the treatment or prevention of cerebral amyloid angiopathy” (Novartis AG, priority 2016, dated 2020)

Test system: amyloid-beta in CD31-positive vessels
Experiment: Assessment of CAA in APP23 mice by CD31/NT12 double fluorescence immunohistochemistry and image analysis
Assay type: in vivo, mouse
Description: Amyloid plaques were stained using a rabbit anti-Aβ primary antibody (NT12) which recognizes the C-terminal part of the amyloid peptide (the antibody was raised as described in Schrader-Fischer G and Paganetti P A, 1996, and Schrader-Fischer G et al., 1997). The vascular endothelial cells were detected using a rat anti-CD31 antibody (reference DIA310) from Dianova GmbH (Hamburg, Germany). All stainings were performed using the fully automated instrument Ventana Discovery® Ultra (Roche Diagnostics Schweiz AG, Rotkreuz, Switzerland). All chemicals were provided by Roche Diagnostic.
All study animals were used and brain tissue sections of 3 micrometers were freshly cut and collected on SuperFrost+ slides. The tissues sections were de-paraffinized and rehydrated under solvent-free conditions (EZprep solution) followed by antigen retrieval (demasking) performed by heat retrieval cycles for 32 min in a EDTA based buffer (CC1 solution). Subsequently, slides were blocked for 4 min using the DISCOVERY Inhibitor (reference 07017944001 (Roche)). The primary antibody diluted at 1/10′000 in antibody diluent was manually added on tissue sections and incubated for 1 h at room temperature. A short post-fixation (glutaraldehyde at 0.05%) was performed before applying the multimer UltraMap-anti Rabbit HRP ready to use antibody (reference 05269717001) for 16 min.
Detection was performed using the DISCOVERY FITC® following the manufacturer's recommendations. Slides were then heat denaturated at 92° C. for 20 min before a manual application of the second primary antibody (rat anti-CD31 diluted at 1/1′000 in antibody diluent) and incubated for 1 h. Multimer UltraMap-anti-Rat HRP antibody (reference 05891884001) was used for 20 min to detect CD31 in combination with the DISCOVERY Rhodamine kit (reference 07259883001).
The slides were washed and mounted using Prolong® Gold antifade reagent (reference P36931, ThermoFisher, Switzerland) and further scanned with the Hamamatsu slide scanner instrument (NanoZoomer 2.0 HT, scanning software NDP-Scan Vers. 2.5, Hamamatsu Photonics France, Swiss Office, Solothurn, Switzerland) at the 40× objective. The scanning settings were as follows: the exposure time with the DAPI filter was set at 28.5 ms as well as for the FITC filter and TRITC filter (detection of Rhodamine).
For the quantitative plaque and vessel-associated amyloid-beta evaluation based on image analysis, a proprietary image analysis platform (ASTORIA, Automated Stored Image Analysis) was developed based on MS Visual Studio 2010 and many functions from Matrox MIL V9 libraries (Matrox Inc, Quebec, Canada).
For the beta-amyloid plaque and vessel analysis, the following sequence of steps was performed: • Slides were scanned with Hamamatsu Nanozoomer at 40× magnification. […]

[1] = 0.3 g/kg food, 6 months, all CD31+ vessels
[2] = 0.3 g/kg food, 6 months, large CD31-positive vessels
[3] = 0.3 g/kg vs vehicle, all CD31+ vessels
[4] = 0.3 g/kg vs vehicle, large vessels
[5] = 0.3 g/kg vs vehicle, small + medium vessels

## C[C@@]1(c2nc(NC(=O)c3ncc(C(F)(F)F)cc3Cl)ccc2F)CO[C@@](C)(C(F)(F)F)C(N)=N1 [Compound 1, N-(6-((3R,6R)-5-amino-3,6-dimethyl-6-(trifluoromethyl)-3,6-dihydro-2H-1,4-oxazin-3-yl)-5-fluoropyridin-2-yl)-3-chloro-5-(trifluoromethyl)picolinamide]
0.3 g/kg food, 6 months
  % of large vessels with 0% Aβ: 10.3 ± 1.56%
  % of large vessels with 1-10% Aβ: 21.6 ± 2.31%
  % of large vessels with 10-25% Aβ: 9.48 ± 1.85%
  % of large vessels with 25-50% Aβ: 20.6 ± 3.66%
  % of large vessels with 50-75% Aβ: 28.8 ± 3.3%
  % of large vessels with >10% Aβ: 68.1 ± 3.03%
  % of large vessels with >75% Aβ: 9.27 ± 2.77%
  % of small + medium vessels with 0% Aβ: 80.2 ± 1.61%
  % of small + medium vessels with 1-10% Aβ: 10.8 ± 1.12%
  % of small + medium vessels with 10-25% Aβ: 2.75 ± 0.20%
  % of small + medium vessels with 25-50% Aβ: 2.38 ± 0.25%
  % of small + medium vessels with 50-75% Aβ: 1.73 ± 0.21%
  % of small + medium vessels with >10% Aβ: 8.95 ± 0.8%
  % of small + medium vessels with >75% Aβ: 2.07 ± 0.33%
  CAA Frequency (number small + medium vessels with >10% Aβ normalized to sample area, *10^7): 56 ± 6.1
  Number of large CD31+ vessels (normalized to total CD31 positive vessel numbers in %): 1.49 ± 0.12%
  Number of small + medium CD31+ vessels (normalized to total CD31 positive small + medium vessel numbers in %): 98.5 ± 0.12%
  Number small + medium vessels with >10% Aβ, mean ± SEM: 195 ± 21.9
  Total number CD31+ vessels (normalized to total sample area, *10^5), mean ± SEM: 6.46 ± 0.37
  Total vessel-associated NT12 area (normalized to total small + medium CD31+ vessel area): 0.194 ± 0.0201
[1]
  % of vessels with 0% Aβ: 79.2 ± 1.63%
  % of vessels with 1-10% Aβ: 11 ± 1.1%
  % of vessels with 10-25% Aβ: 2.87 ± 0.21%
  % of vessels with 25-50% Aβ: 2.65 ± 0.25%
  % of vessels with 50-75% Aβ: 2.12 ± 0.24%
  % of vessels with >10% Aβ: 9.82 ± 0.85%
  % of vessels with >75% Aβ: 2.19 ± 0.36%
  CAA Frequency (number vessels with >10% Aβ normalized to sample area, *10^7): 70 ± 7.6
  Number vessels with >10% Aβ, mean ± SEM: 217 ± 23.6
  Total vessel-associated NT12 area (normalized to total CD31+ area): 0.47 ± 0.04
[2]
  CAA Frequency (number vessels with >10% Aβ normalized to sample area, *10^7): 6.5 ± 0.6
  Number vessels with >10% Aβ, mean ± SEM: 22 ± 2.2
  Total vessel-associated NT12 area (normalized to total CD31+ area): 0.77 ± 0.04
0.3 g/kg vs vehicle
  % of large vessels with 0% Aβ, treatment effect vs vehicle: −8%
  % of large vessels with 1-10% Aβ, treatment effect vs vehicle: +48%
  % of large vessels with 10-25% Aβ, treatment effect vs vehicle: +35%
  % of large vessels with 25-50% Aβ, treatment effect vs vehicle: +7%
  % of large vessels with 50-75% Aβ, treatment effect vs vehicle: −12%
  % of large vessels with >10% Aβ, treatment effect vs vehicle: −8%
  % of large vessels with >75% Aβ, treatment effect vs vehicle: −36%
  % of small + medium vessels with 0% Aβ, treatment effect vs vehicle: +9%
  % of small + medium vessels with 1-10% Aβ, treatment effect vs vehicle: −15%
  % of small + medium vessels with 10-25% Aβ, treatment effect vs vehicle: −35%
  % of small + medium vessels with 25-50% Aβ, treatment effect vs vehicle: −39%
  % of small + medium vessels with 50-75% Aβ, treatment effect vs vehicle: −35%
  % of small + medium vessels with >10% Aβ, treatment effect vs vehicle: −36%
  % of small + medium vessels with >75% Aβ, treatment effect vs vehicle: −34%
  Total small + medium vessel-associated NT12 area (normalized to total CD31+ small + medium vessel area), treatment effect vs vehicle: −28% p < 0.05
[3]
  % of vessels with 0% Aβ, treatment effect vs vehicle: +9%
  % of vessels with 1-10% Aβ, treatment effect vs vehicle: −13%
  % of vessels with 10-25% Aβ, treatment effect vs vehicle: −32%
  % of vessels with 25-50% Aβ, treatment effect vs vehicle: 36%
  % of vessels with 50-75% Aβ, treatment effect vs vehicle: −33%
  % of vessels with >10% Aβ, treatment effect vs vehicle: −34%
  % of vessels with >75% Aβ, treatment effect vs vehicle: −34%
  CAA Frequency, treatment effect vs vehicle: −29% p < 0.05
  Number vessels with >10% Aβ, treatment effect vs vehicle: −39% p < 0.001
  Total vessel-associated NT12 area (normalized to total CD31+ area), treatment effect vs vehicle: −19% n.s.
[4]
  CAA Frequency, treatment effect vs vehicle: −17% n.s.
  Number vessels with >10% Aβ, treatment effect vs vehicle: −21% n.s.
  Total vessel-associated NT12 area (normalized to total CD31+ area), treatment effect vs vehicle: −4% n.s.
[5]
  CAA Frequency, treatment effect vs vehicle: −37% p < 0.005
  Number vessels with >10% Aβ, treatment effect vs vehicle: −40% p < 0.001
